Source: ChEMBL document CHEMBL4130362, “Structure-based design, synthesis, and evaluation of 4,5,6,7-tetrahydro-1H-pyrazolo[4,3-c]pyridine derivatives as novel c-Met inhibitors” (Eur J Med Chem, 2017)

Legend:
[1] = test system: PC-3; experiment: Cytotoxicity against human PC3 cells assessed as decrease in cell viability after 72 hrs by Cell Titer-Glo assay; assay type: functional
[2] = test system: EBC-1; experiment: Cytotoxicity against human EBC1 cells assessed as decrease in cell viability after 72 hrs by Cell Titer-Glo assay; assay type: functional
[3] = test system: HFL1; experiment: Cytotoxicity against human HFL1 cells assessed as decrease in cell viability at 50 uM after 72 hrs by Cell Titer-Glo assay; assay type: cell-based; details: hfl1, 72 h
[4] = test system: MKN-45; experiment: Cytotoxicity against human MKN45 cells assessed as decrease in cell viability after 72 hrs by Cell Titer-Glo assay; assay type: functional
[5] = test system: Hepatocyte growth factor receptor (Homo sapiens), P08581 [Y1230H]; experiment: Inhibition of human GST-tagged c-MET Y1230H mutant at 3 uM preincubated for 20 mins followed by [33P]-ATP addition measured after 2 hrs by Hot-SpotSM kinase assay
[6] = molecular target: Platelet-derived growth factor receptor alpha (Homo sapiens) (UniProt P16234); experiment: Inhibition of human GST-tagged PDGFRalpha at 3 uM preincubated for 20 mins followed by [33P]-ATP addition measured after 2 hrs by Hot-SpotSM kinase assay
Chain of Platelet-derived growth factor receptor alpha (Homo sapiens) (P16234 whole entry): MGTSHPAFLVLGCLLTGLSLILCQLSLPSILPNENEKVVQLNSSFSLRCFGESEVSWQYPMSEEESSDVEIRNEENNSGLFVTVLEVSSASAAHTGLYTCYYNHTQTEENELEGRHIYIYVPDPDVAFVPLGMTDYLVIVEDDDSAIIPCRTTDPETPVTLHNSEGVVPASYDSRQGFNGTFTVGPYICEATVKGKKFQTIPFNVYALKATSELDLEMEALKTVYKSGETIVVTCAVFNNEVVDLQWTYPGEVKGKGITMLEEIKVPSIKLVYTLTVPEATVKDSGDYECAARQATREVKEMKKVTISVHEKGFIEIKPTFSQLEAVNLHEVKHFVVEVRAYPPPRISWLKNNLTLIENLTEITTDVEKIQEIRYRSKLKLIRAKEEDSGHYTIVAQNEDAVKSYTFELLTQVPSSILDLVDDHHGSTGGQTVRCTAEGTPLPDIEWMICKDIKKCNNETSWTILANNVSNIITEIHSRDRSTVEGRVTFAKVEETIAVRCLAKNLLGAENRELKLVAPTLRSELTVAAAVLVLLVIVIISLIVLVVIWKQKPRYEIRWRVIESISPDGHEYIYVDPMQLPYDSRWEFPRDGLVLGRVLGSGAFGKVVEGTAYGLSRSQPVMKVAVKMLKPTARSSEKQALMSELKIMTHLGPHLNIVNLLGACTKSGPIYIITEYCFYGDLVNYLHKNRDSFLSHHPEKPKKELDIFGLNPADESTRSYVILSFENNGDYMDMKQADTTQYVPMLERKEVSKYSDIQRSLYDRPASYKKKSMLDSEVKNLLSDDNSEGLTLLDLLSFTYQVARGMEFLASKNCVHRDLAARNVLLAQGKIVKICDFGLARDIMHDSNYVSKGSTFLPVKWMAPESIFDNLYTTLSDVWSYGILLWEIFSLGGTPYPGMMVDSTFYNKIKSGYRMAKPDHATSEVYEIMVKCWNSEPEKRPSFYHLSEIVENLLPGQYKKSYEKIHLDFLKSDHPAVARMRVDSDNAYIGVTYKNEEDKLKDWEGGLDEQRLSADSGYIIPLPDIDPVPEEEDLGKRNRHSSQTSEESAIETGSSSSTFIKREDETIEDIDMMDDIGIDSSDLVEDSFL

[7] = molecular target: Macrophage-stimulating protein receptor (Homo sapiens) (UniProt Q04912); experiment: Inhibition of human GST-tagged RON at 3 uM preincubated for 20 mins followed by [33P]-ATP addition measured after 2 hrs by Hot-SpotSM kinase assay
[8] = test system: PC-3; experiment: Cytotoxicity against human PC3 cells assessed as decrease in cell viability at 25 uM after 72 hrs by Cell Titer-Glo assay relative to control; assay type: functional
[9] = molecular target: Epidermal growth factor receptor (Homo sapiens) (UniProt P00533); experiment: Inhibition of human GST-tagged EGFR at 3 uM preincubated for 20 mins followed by [33P]-ATP addition measured after 2 hrs by Hot-SpotSM kinase assay
[10] = molecular target: Vascular endothelial growth factor receptor 2 (Homo sapiens) (UniProt P35968); experiment: Inhibition of human GST-tagged VEGFR2 at 3 uM preincubated for 20 mins followed by [33P]-ATP addition measured after 2 hrs by Hot-SpotSM kinase assay
Chain of Vascular endothelial growth factor receptor 2 (Homo sapiens) (P35968 whole entry): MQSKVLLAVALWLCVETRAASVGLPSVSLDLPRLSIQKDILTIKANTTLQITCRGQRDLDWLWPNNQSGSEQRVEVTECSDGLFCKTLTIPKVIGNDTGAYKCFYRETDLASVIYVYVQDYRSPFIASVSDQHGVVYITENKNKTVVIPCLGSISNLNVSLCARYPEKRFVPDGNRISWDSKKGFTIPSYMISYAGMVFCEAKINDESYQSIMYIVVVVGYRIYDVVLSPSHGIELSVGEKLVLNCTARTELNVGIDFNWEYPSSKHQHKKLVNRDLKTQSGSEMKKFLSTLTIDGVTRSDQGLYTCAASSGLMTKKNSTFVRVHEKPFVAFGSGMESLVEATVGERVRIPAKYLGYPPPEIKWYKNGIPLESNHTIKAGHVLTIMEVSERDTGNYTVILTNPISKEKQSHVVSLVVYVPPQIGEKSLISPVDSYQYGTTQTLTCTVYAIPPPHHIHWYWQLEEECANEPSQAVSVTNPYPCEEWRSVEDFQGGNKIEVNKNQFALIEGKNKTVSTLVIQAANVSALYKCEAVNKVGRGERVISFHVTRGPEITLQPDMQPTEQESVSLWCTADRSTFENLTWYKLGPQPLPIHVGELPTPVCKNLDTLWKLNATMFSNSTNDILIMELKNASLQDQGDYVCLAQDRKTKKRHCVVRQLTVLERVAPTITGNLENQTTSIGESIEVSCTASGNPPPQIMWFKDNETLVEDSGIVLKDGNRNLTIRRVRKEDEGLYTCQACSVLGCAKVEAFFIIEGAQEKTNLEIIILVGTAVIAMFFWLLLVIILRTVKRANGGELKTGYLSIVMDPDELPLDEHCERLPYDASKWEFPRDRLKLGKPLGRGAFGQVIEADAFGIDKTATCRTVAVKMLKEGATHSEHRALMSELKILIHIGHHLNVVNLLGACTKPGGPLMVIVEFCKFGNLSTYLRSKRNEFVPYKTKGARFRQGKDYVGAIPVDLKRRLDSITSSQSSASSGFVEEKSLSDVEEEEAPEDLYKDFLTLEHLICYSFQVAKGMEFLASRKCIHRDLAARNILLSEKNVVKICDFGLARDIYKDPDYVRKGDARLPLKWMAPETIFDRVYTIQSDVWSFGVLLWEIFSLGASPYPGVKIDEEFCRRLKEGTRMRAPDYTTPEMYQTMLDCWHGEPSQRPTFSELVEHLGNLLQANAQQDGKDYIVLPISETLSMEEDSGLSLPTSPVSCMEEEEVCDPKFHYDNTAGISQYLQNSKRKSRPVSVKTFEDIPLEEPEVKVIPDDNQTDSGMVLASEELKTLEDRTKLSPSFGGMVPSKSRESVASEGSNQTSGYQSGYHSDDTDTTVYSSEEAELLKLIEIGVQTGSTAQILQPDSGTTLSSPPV

[11] = molecular target: T1, Hepatocyte growth factor receptor (Homo sapiens, UniProt P08581); experiment: Inhibition of HGF-induced c-MET phosphorylation at Tyr1234/1235 in human MKN45 cells after 1 hr by Western blot analysis; assay type: cell-based
T1 sequence (P08581 whole entry): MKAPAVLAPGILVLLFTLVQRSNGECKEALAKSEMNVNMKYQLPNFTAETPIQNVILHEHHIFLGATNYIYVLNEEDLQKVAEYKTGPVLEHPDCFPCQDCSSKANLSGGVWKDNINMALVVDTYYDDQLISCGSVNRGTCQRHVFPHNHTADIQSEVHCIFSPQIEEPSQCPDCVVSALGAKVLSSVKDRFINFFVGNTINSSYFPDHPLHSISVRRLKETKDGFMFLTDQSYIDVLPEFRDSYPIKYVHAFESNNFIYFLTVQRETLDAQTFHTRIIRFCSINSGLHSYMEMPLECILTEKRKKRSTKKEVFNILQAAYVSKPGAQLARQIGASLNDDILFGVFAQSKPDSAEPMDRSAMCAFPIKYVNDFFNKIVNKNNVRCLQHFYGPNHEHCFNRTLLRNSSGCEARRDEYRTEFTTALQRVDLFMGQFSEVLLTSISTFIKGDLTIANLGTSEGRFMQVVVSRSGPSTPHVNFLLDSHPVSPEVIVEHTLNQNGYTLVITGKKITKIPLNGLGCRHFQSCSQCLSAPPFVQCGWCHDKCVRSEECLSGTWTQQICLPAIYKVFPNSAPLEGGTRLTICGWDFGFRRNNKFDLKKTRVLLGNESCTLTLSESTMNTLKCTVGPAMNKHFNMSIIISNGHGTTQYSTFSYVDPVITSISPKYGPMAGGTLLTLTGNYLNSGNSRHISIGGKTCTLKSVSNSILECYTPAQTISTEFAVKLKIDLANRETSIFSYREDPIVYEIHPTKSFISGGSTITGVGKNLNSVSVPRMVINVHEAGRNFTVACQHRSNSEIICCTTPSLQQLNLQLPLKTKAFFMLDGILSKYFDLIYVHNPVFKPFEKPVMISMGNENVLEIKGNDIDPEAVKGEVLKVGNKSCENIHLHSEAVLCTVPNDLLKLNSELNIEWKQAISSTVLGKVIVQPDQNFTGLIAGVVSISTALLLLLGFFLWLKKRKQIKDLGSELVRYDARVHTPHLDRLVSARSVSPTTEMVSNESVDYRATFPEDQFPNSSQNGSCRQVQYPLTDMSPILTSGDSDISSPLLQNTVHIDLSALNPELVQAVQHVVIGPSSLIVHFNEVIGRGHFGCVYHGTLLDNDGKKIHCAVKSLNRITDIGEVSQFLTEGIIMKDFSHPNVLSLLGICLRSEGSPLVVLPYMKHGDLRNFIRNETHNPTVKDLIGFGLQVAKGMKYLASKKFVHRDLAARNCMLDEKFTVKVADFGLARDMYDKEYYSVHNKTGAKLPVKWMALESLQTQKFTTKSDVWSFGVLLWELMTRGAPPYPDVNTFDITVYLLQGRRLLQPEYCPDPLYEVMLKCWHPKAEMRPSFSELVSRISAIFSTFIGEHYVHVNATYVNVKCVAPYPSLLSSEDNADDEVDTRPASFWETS

[12] = molecular target: Receptor-type tyrosine-protein kinase FLT3 (Homo sapiens) (UniProt P36888); experiment: Inhibition of human GST-tagged FLT3 at 3 uM preincubated for 20 mins followed by [33P]-ATP addition measured after 2 hrs by Hot-SpotSM kinase assay
[13] = molecular target: T1, Hepatocyte growth factor receptor; experiment: Inhibition of human GST-tagged c-MET at 3 uM preincubated for 20 mins followed by [33P]-ATP addition measured after 2 hrs by Hot-SpotSM kinase assay
[14] = molecular target: Proto-oncogene tyrosine-protein kinase receptor Ret (Homo sapiens) (UniProt P07949); experiment: Inhibition of human GST-tagged RET at 3 uM preincubated for 20 mins followed by [33P]-ATP addition measured after 2 hrs by Hot-SpotSM kinase assay
Chain of Proto-oncogene tyrosine-protein kinase receptor Ret (Homo sapiens) (P07949 whole entry): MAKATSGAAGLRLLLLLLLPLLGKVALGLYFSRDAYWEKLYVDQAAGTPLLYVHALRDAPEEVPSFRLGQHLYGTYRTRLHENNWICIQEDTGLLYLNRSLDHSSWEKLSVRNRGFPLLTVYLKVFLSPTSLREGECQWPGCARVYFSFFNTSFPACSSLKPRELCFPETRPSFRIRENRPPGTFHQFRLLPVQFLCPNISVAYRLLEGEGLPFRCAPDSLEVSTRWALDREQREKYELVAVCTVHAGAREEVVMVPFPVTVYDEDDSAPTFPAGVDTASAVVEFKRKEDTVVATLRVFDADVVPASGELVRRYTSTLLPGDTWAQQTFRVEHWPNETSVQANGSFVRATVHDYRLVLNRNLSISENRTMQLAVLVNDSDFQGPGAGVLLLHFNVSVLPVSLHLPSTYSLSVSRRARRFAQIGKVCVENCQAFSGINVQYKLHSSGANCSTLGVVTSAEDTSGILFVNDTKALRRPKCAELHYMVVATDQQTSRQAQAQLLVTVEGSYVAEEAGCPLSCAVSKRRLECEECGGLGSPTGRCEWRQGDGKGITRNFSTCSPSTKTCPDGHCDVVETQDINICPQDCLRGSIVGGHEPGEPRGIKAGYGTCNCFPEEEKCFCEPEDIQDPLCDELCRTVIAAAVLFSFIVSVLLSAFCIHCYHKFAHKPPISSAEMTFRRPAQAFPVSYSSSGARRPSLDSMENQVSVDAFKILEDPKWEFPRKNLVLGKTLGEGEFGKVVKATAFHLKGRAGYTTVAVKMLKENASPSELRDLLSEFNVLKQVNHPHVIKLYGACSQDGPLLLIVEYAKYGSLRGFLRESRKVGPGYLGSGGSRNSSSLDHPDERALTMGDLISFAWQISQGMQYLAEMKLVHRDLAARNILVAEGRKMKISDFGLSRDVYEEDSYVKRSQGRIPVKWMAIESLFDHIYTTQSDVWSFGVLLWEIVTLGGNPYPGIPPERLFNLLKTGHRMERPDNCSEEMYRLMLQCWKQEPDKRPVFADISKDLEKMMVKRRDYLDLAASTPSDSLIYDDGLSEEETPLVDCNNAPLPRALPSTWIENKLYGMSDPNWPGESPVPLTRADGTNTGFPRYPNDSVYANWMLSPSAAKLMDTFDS

[15] = test system: Hepatocyte growth factor receptor (Homo sapiens), P08581 [Y1230C]; experiment: Inhibition of human GST-tagged c-MET Y1230C mutant at 3 uM preincubated for 20 mins followed by [33P]-ATP addition measured after 2 hrs by Hot-SpotSM kinase assay
[16] = molecular target: T2, Receptor-type tyrosine-protein kinase FLT3 (Homo sapiens, UniProt P36888); experiment: Inhibition of human GST-tagged FLT3 preincubated for 20 mins followed by [33P]-ATP addition measured after 2 hrs by Hot-SpotSM kinase assay
T2 sequence (P36888 whole entry): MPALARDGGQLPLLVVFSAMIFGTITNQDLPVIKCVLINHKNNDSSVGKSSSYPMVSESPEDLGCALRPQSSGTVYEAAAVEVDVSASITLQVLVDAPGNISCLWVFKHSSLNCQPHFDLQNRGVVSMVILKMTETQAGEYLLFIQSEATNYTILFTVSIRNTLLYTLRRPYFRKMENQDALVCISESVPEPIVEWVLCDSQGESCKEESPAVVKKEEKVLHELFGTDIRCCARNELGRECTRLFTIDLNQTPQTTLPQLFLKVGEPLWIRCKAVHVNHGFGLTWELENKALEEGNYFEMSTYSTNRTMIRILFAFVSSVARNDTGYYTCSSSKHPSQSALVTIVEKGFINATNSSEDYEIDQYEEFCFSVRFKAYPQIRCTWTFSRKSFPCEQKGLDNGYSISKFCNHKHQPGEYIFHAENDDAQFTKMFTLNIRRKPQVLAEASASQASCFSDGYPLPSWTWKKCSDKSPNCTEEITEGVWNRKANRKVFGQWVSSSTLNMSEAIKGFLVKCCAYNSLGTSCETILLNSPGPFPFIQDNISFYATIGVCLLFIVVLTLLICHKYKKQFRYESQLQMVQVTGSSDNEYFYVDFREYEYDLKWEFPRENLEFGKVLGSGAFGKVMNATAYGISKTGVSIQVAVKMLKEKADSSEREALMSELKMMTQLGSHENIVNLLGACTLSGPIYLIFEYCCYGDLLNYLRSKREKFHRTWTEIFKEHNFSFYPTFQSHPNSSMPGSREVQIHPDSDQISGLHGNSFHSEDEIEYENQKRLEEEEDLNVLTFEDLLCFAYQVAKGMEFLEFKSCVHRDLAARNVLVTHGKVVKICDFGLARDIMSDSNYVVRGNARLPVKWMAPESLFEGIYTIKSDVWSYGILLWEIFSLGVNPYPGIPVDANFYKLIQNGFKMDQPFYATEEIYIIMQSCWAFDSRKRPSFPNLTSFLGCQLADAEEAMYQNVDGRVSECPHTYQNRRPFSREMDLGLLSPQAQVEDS

[17] = molecular target: T1, Hepatocyte growth factor receptor; experiment: Inhibition of human GST-tagged c-MET preincubated for 20 mins followed by [33P]-ATP addition measured after 2 hrs by Hot-SpotSM kinase assay
[18] = molecular target: ALK tyrosine kinase receptor (Homo sapiens) (UniProt Q9UM73); experiment: Inhibition of human GST-tagged ALK at 3 uM preincubated for 20 mins followed by [33P]-ATP addition measured after 2 hrs by Hot-SpotSM kinase assay
[19] = test system: EBC-1; experiment: Cytotoxicity against human EBC1 cells assessed as decrease in cell viability at 25 uM after 72 hrs by Cell Titer-Glo assay relative to control; assay type: functional

IC50 [17] | Compound | Activity [1] | Activity [2] | Activity [4] | further results
 | C[C@@H](Oc1cc(-c2cnn(C3CCNCC3)c2)cnc1N)c1c(Cl)ccc(F)c1Cl [CRIZOTINIB] | 2.244 µM | 0.013 µM | 0.022 µM | Activity [3]: 39.4%
 | CC(=O)N1CCC(Nc2ccc(-c3n[nH]c4c3CN(S(=O)(=O)c3c(Cl)cccc3Cl)CC4)cc2)CC1 | >25 µM | 11.478 µM | 12.02 µM | 
 | O=C(NCCO)c1ccc(-c2n[nH]c3c2CN(S(=O)(=O)c2c(Cl)cccc2Cl)CC3)cc1 | >25 µM | >25 µM | >25 µM | 
0.068 µM | CN1CCC(Nc2ccc(-c3n[nH]c4c3CN(S(=O)(=O)c3c(Cl)cccc3Cl)CC4)cc2)CC1 |  | 3.481 µM | 1.187 µM | inhibition [5]: 7.16%; inhibition [6]: 41.1%; inhibition [7]: 27.4%; Activity [8]: 60.89%; inhibition [9]: -5.68%; inhibition [10]: 26.9%; inhibition [11]: Dose-dependent effect; Activity [3]: 40.6%; inhibition [12]: 97.8%; inhibition [13]: 17.6%; inhibition [14]: 33.5%; inhibition [15]: 14.9%; IC50 [16]: 124 nM; inhibition [18]: 55.6%
> 50 µM | CC(=O)N1CCC(Nc2ccc(-c3n[nH]c4c3CN(S(=O)(=O)c3cccc5ccccc35)CC4)cc2)CC1 |  |  |  | 
 | CC(=O)N1CCC(Nc2ccc(-c3n[nH]c4c3CN(S(=O)(=O)c3cccs3)CC4)cc2)CC1 | >25 µM |  | >25 µM | Activity [19]: 57.52%
 | CN1CCN(C(=O)c2ccc(-c3n[nH]c4c3CN(S(=O)(=O)c3c(Cl)cccc3Cl)CC4)cc2)CC1 |  | 8.278 µM | 12.057 µM | 
> 50 µM | CC(=O)N1CCC(Nc2ccc(-c3n[nH]c4c3CN(S(=O)(=O)c3ccc(C)cc3)CC4)cc2)CC1 |  |  |  | 
> 50 µM | CC(=O)N1CCC(Nc2ccc(-c3n[nH]c4c3CN(S(=O)(=O)c3cccc5cccnc35)CC4)cc2)CC1 |  |  |  | 
